According to patent publication US11815448B2, “Method, reagent, and chip for measuring analyte concentration in specimen” (TERUMO KABUSHIKI KAISHA, priority 2018, dated 2023):
Where a name gives a salt, the structure may show the parent alone.

Experiment: Evaluation of maximum absorption wavelength (λmax)
Type: physicochemical
Description: A 10 mM MOPS aqueous solution is added so that the final concentrations of the respective formazan compounds are 50 to […] to prepare 100 μL of each sample. Separately, a 1M nickel ion aqueous solution is prepared. To 100 μL of the sample, 10 μL of the 1M nickel ion aqueous solution is added, and the mixture is rapidly stirred to prepare a mixed solution. The spectrum of the mixed solution is measured with a spectrophotometer (measurement cell length: 10 mm) (n=1). Based on each spectrum, the maximum absorption wavelength (λmax) (nm) of each compound in formazan is determined.
Diethyl ether was added to the reaction solution obtained in 3. above to precipitate the tetrazolium compound 1. The precipitate was centrifuged, and the supernatant was removed, followed by washing with diethyl ether. The obtained precipitate was dried in a draft to obtain tetrazolium compound 1 (120 mg, yield: 11.8% by mass). The maximum absorption wavelength (λmax) of the tetrazolium compound 1 thus obtained was measured and found to be 630 nm.

maximum absorption wavelength (λmax): 630 nm
SMILES: COc1ccc2nc(-n3nc(-c4ccc(S(=O)(=O)O)cc4S(=O)(=O)[O-])n[n+]3-c3ccc(OC)c(S(=O)(=O)O)c3)sc2c1 [tetrazolium compound 1, 2-(6-methoxybenzothiazolyl)-3-(3-sulfo-4-methoxy-phenyl)-5-(2,4-disulfophenyl)-2H-tetrazolium salt]
